The source of these data is article PMC5487955, “Microarray Selection of Cooperative Peptides for Modulating Enzyme Activities” (Microarrays, 2017).

“And” between values parts separate entries of the source, which are not always exact repeats. Identical values can stand only once. Where no end group is shown, it is not given here.

Assay [1] relates to crosslinked PEP-1–β-Gal complex. Nature of the assay: Peptide microarray binding of crosslinked PEP-1–β-Gal complex. The conditions noted are these: negative control selection. As to the method:
Firstly, 20 μM PEP-1 (sequence of “RVFKRKRWLHVSRYYFGSC”) was incubated with 30 nM β-Gal for 20 min, and then 0.5% formaldehyde was added to the peptide/enzyme mixture. It was then incubated for another 20 min in order to crosslink the peptide with enzyme. The entire mixture was then diluted by 100 × in phosphate buffer to bring the overall peptide concentration as low as 200 nM.

The target in assay [2] is T1, β-galactosidase (β-Gal) (Escherichia coli, UniProt P00722). Nature of the assay: biochemical. Set-up: purchased Sigma (St. Louis, MO, USA). The note with it: for reduction of enzyme activity, combination with PEP-1: 100 μM NEW peptide + 2 μM PEP-1; for reduction of enzyme activity, NEW peptide alone: 100 μM peptide by itself, pH 7.4 10 mM potassium phosphate, 100 μM MgCl2, 25 °C, at least three replicates. How it is done: Solution-based enzyme assays were performed on SpectraMax M5 96 well plate readers (Molecular Device, Sunnyvale, CA, USA) as described previously. Simply explained, peptides were first incubated with enzyme for 20 min, and then the substrate solution was added into the wells to measure the enzyme activity. At least three replicates per peptide were included. The β-gal-catalyzed hydrolysis of RBG was fluorescently monitored at 590 nm (resorufin) with the excitation at 540 nm. For a typical assay, ~0.3 nM or 1 nM β-Gal was incubated with peptides and 100 μM RBG substrate in pH 7.4, 10 mM potassium phosphate buffer with 100 μM MgCl2 at 25 °C. The reaction rate was determined by the initial velocity of the linear reaction. The percentage of reduced/inhibited enzyme activity was calculated as below: Percentage of reduced activity=(1−Inhibited activity/Noninhibited activity)×100% […]
Figure S1. Titration of IC 50 for PEP-1. The IC 50 of peptide inhibition is measured at a substrate concentration of 100 μM RBG (resorufin β -D-galactopyranoside) and β-Gal concentration of 150 μg/L, 25 °C. All tests included three replicates. Error bar: range of data.
The IC50 of each inhibitor was determined by fitting the concentration vs. inhibition curve to the function ‘Fit LogIC50’ as defined in the program GraphPad Prism 7 using the fitting equation “Y=Bottom+(Top-Bottom)/(1+10^(X-LogIC50))”. The “Bottom” term was constrained to 1, which represents the maximal inhibition of 100%. The “Top” term was constrained to 0, which represents the minimal inhibition of 0%.
The enzyme inhibition was also quantitatively characterized using the inhibition percentage that was calculated using the following equation:
Inhibition Percentage = (Activity uninhibited – Activity inhibited)/ Activity uninhibited × 100%
(1 picture or pasted object on this page, not shown here)

For assay [3], the system named is inhibited PEP-1–β-Gal complex. Nature of the assay: Recovery of PEP-1 inhibited enzyme activity. The format is biochemical. The note with it: 320 μM NEG added, incubated another 20 min; 1 nM β-Gal preincubated with PEP-1 for 20 min. How it is done:
Solution-based enzyme assays were performed on SpectraMax M5 96 well plate readers (Molecular Device, Sunnyvale, CA, USA) as described previously. Simply explained, peptides were first incubated with enzyme for 20 min, and then the substrate solution was added into the wells to measure the enzyme activity. At least three replicates per peptide were included. The β-gal-catalyzed hydrolysis of RBG was fluorescently monitored at 590 nm (resorufin) with the excitation at 540 nm. For a typical assay, ~0.3 nM or 1 nM β-Gal was incubated with peptides and 100 μM RBG substrate in pH 7.4, 10 mM potassium phosphate buffer with 100 μM MgCl2 at 25 °C. The reaction rate was determined by the initial velocity of the linear reaction. The percentage of reduced/inhibited enzyme activity was calculated as below: Percentage of reduced activity=(1−Inhibited activity/Noninhibited activity)×100%
For recovery of PEP-1 inhibited enzyme activity, 1 nM β-Gal was first incubated with PEP-1 for 20 min for inhibiting activity, and then NEG peptide was added to the solution and incubated for another 20 min before the activity assay.

For assay [4], the target named is T1, β-galactosidase (β-Gal). The conditions noted are these: negative control selection.
From the text: Microarrays of 10,000 20-mer peptides were produced by Arizona State University as previously reported [14, 17]. […] Each polypeptide was 20 residues in length, with 17 positions randomly chosen from a set of 19 amino acids (excluding cysteine). The C-terminal 3 positions of each peptide was a glycine–serine–cysteine (GSC) linker, which was used for conjugating peptides to amino-silane surfaces via a maleimide linker, sulfosuccinimidyl 4-(N-maleimidomethyl)cyclohexane-1-carboxylate (Sulfo-SMCC; Pierce, Rockford, IL, USA). The array printing was performed by using a Telechem Nanoprint60 (Arrayit, Sunnyvale, CA, USA) hat spotted approximately 500 pL of 1 mg/mL peptide per feature on glass slides with 48 Telechem series SMP2-style 946 titanium pins (Arrayit).
Binding of enzymes on the microarray was performed as previously described [17, 18]. […] Then, the array was incubated with a solution containing 5 nM Alexa 647-labeled β-Gal or PEP-1–β-Gal complex for two hours, allowing the enzyme to bind with peptides on the array surface. After washing off unbound enzymes, the array was read by a standard array reader (PerkinElmer, Waltham, MA, USA) with color scanning using 647 nm laser lines.
Setting [5] is: 100 μM RBG, pH 7.4, 25 °C, 20 min preincubation.
Where [6] appears, read: 100 μM RBG, 20 min preincubation.

T1 sequence (P00722 2-1024): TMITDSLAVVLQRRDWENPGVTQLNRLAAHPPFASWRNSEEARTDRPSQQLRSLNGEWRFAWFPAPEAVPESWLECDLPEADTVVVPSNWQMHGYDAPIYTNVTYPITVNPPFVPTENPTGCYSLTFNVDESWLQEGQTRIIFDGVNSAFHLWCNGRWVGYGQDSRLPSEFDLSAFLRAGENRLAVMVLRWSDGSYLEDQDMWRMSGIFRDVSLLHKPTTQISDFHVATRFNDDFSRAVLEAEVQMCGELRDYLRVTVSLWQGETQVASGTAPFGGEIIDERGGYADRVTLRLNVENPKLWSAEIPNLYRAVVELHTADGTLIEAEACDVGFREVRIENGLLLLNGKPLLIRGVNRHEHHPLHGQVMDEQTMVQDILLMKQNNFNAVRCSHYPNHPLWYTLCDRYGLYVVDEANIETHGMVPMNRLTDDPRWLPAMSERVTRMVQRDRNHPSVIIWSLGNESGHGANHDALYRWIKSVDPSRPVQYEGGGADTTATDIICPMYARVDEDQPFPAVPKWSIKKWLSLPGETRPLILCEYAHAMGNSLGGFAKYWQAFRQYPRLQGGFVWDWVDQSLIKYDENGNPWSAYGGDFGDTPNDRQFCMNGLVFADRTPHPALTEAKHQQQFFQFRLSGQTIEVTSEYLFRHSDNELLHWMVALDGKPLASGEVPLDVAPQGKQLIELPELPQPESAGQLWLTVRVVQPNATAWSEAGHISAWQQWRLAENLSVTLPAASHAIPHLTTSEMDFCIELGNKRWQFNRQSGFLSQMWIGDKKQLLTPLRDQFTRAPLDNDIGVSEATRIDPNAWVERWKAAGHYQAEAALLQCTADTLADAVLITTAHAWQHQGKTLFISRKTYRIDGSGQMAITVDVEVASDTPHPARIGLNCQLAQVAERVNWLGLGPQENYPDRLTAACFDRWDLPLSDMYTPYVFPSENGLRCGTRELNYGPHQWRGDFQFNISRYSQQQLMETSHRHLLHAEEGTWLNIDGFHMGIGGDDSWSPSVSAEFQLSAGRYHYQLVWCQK

Regarding ESVPTDLPMDTMEGKNWGSC [NEG], in assay [1], the “binding to crosslinked PEP-1–β-gal complex on microarray (in words)” value was “did not show strong binding”. Also, the “inhibition of β-Gal activity, NEG combined with PEP-1” value at β-galactosidase (β-Gal) [2] (10 μM NEG + 2 μM PEP-1) is 24%. Besides, the “inhibition of β-Gal, NEG combined with PEP-1 (in words)” value at β-galactosidase (β-Gal) [2] (100 μM NEG + 2 μM PEP-1) is recorded as “almost lost the ability to inhibit β-Gal”. For the same sequence, the “activity of inhibited PEP-1–β-Gal complex, % of uninhibited enzyme” value in assay [3] is on record as about 45%. Moreover, the “binding to β-Gal on microarray (in words)” value at β-galactosidase (β-Gal) [4] is given as “neither bound to β-Gal”.

In the case of GVSHLHWIKMLNETTVMGSC [NEW-1], on β-galactosidase (β-Gal) [2] (setting [5]), the “reduction of enzyme activity, combination with PEP-1” value (shortened to “reduction … with PEP-1”) is reported as ~ 70%. Besides, the “reduction of enzyme activity, NEW peptide alone” value (“reduction … NEW peptide alone” for short) on β-galactosidase (β-Gal) [2] (setting [6]) is given as “less than 10%”.

As to HISPQHMMAYSPKAFDYGSC [NEW-2], the “reduction … with PEP-1” value on β-galactosidase (β-Gal) [2] (setting [5]) is ~ 73%. Besides, at β-galactosidase (β-Gal) [2] (setting [6]), the “reduction … NEW peptide alone” value is reported as ~ 12%.

With MHNHAFNDNHGRGPTAWGSC [NEW-4], at β-galactosidase (β-Gal) [2] (setting [5]), the “reduction … with PEP-1” value was 91%. In addition, the “reduction … NEW peptide alone” value at β-galactosidase (β-Gal) [2] (setting [6]) is recorded as ~ 26%.

For the sequence RVFKRKRWLHVSRYYFGSC [PEP-1], the IC50 (usually the point on the concentration scale where inhibition reaches its midpoint) on β-galactosidase (β-Gal) [2] was about 1600 nM. Also, the “reduction of enzyme activity, PEP-1 by itself” value on β-galactosidase (β-Gal) [2] (2 μM PEP-1 alone, 100 μM RBG, pH 7.4, 25 °C, 20 min preincubation) is ~ 57% and 57%.

YDTLHRNRQMMDWQFEPGSC [NEW-3]: the “reduction … with PEP-1” value on β-galactosidase (β-Gal) [2] (setting [5]) was ~ 86%. Further, at β-galactosidase (β-Gal) [2] (setting [6]), the “reduction … NEW peptide alone” value is reported as ~ 19%.
